ChEMBL document CHEMBL2375302, “Synthesis, antimicrobial, antiquorum-sensing, antitumor and cytotoxic activities of new series of fused [1,3,4]thiadiazoles” (Eur J Med Chem, 2013)

What was measured:
SNB-75 = assay: Growth inhibition of human SNB75 cells at 10 uM after 48 hrs by coulter counter analysis relative to control; assay type: functional; details: SNB-75, 48 h, read-out: GI
A549 = assay: Growth inhibition of human A549 cells at 10 uM after 48 hrs by coulter counter analysis relative to control; assay type: functional; details: A549, 48 h, read-out: GI
OVCAR-5 = assay: Growth inhibition of human OVCAR5 cells at 10 uM after 48 hrs by coulter counter analysis relative to control; assay type: functional; details: OVCAR-5, 48 h, read-out: GI
A498 = assay: Growth inhibition of human A498 cells at 10 uM after 48 hrs by coulter counter analysis relative to control; assay type: functional; details: A498, 48 h, read-out: GI
Hs-578T = assay: Growth inhibition of human Hs578T cells at 10 uM after 48 hrs by coulter counter analysis relative to control; assay type: functional; details: read-out: GI
CCRF-CEM = assay: Growth inhibition of human CCRF-CEM cells at 10 uM after 48 hrs by coulter counter analysis relative to control; assay type: functional; details: read-out: GI
SK-MEL-28 = assay: Growth inhibition of human SK-MEL-28 cells at 10 uM after 48 hrs by coulter counter analysis relative to control; assay type: functional; details: SK-MEL-28, 48 h, read-out: GI
SF-539 = assay: Growth inhibition of human SF539 cells at 10 uM after 48 hrs by coulter counter analysis relative to control; assay type: functional; details: SF-539, 48 h, read-out: GI
IGROV-1 = assay: Growth inhibition of human IGROV1 cells at 10 uM after 48 hrs by coulter counter analysis relative to control; assay type: functional; details: IGROV-1, 48 h, read-out: GI
SK-MEL-2 = assay: Growth inhibition of human SK-MEL-2 cells at 10 uM after 48 hrs by coulter counter analysis relative to control; assay type: functional; details: SK-MEL-2, 48 h, read-out: GI
LOX IMVI = assay: Growth inhibition of human LOXIMVI cells at 10 uM after 48 hrs by coulter counter analysis relative to control; assay type: functional; details: read-out: GI
SF-295 = assay: Growth inhibition of human SF295 cells at 10 uM after 48 hrs by coulter counter analysis relative to control; assay type: functional; details: SF-295, 48 h, read-out: GI
NCI-H23 = assay: Growth inhibition of human NCI-H23 cells at 10 uM after 48 hrs by coulter counter analysis relative to control; assay type: functional; details: NCI-H23, 48 h, read-out: GI
SN12C = assay: Growth inhibition of human SN12C cells at 10 uM after 48 hrs by coulter counter analysis relative to control; assay type: functional; details: read-out: GI
[1] = Toxicity against brine shrimp larvae assessed as mortality at 100 ug/mL after 24 hrs by binocular microscopic analysis relative to control; assay type: organism-based; details: artemia salina, in vivo
Aspergillus fumigatus = assay: Antifungal activity against Aspergillus fumigatus Af293 at 5 mg/mL after 48 hrs; assay type: functional; details: Af293, 48 h, read-out: DIZ
NCI-H460 = assay: Growth inhibition of human NCI-H460 cells at 10 uM after 48 hrs by coulter counter analysis relative to control; assay type: functional; details: NCI-H460, 48 h, read-out: GI
HCT-116 = assay: Growth inhibition of human HCT116 cells at 10 uM after 48 hrs by coulter counter analysis relative to control; assay type: functional; details: HCT-116, 48 h, read-out: GI
Staphylococcus aureus = assay: Antibacterial activity against Staphylococcus aureus at 5 mg/mL after 24 hrs; assay type: functional; details: read-out: DIZ
DU-145 = assay: Growth inhibition of human DU145 cells at 10 uM after 48 hrs by coulter counter analysis relative to control; assay type: functional; details: DU-145, 48 h, read-out: GI
HOP-62 = assay: Growth inhibition of human HOP62 cells at 10 uM after 48 hrs by coulter counter analysis relative to control; assay type: functional; details: HOP-62, 48 h, read-out: GI
PC-3 = assay: Growth inhibition of human PC3 cells at 10 uM after 48 hrs by coulter counter analysis relative to control; assay type: functional; details: PC-3, 48 h, read-out: GI
TK-10 = assay: Growth inhibition of human TK10 cells at 10 uM after 48 hrs by coulter counter analysis relative to control; assay type: functional; details: TK-10, 48 h, read-out: GI
[2] = Toxicity against brine shrimp larvae assessed as mortality at 500 ug/mL after 24 hrs by binocular microscopic analysis relative to control; assay type: organism-based; details: artemia salina, in vivo
NCI-H522 = assay: Growth inhibition of human NCI-H522 cells at 10 uM after 48 hrs by coulter counter analysis relative to control; assay type: functional; details: NCI-H522, 48 h, read-out: GI
UACC-62 = assay: Growth inhibition of human UACC62 cells at 10 uM after 48 hrs by coulter counter analysis relative to control; assay type: functional; details: UACC-62, 48 h, read-out: GI
BT-549 = assay: Growth inhibition of human BT549 cells at 10 uM after 48 hrs by coulter counter analysis relative to control; assay type: functional; details: BT-549, 48 h, read-out: GI
HCT-15 = assay: Growth inhibition of human HCT15 cells at 10 uM after 48 hrs by coulter counter analysis relative to control; assay type: functional; details: HCT-15, 48 h, read-out: GI
MCF7 = assay: Growth inhibition of human MCF7 cells at 10 uM after 48 hrs by coulter counter analysis relative to control; assay type: functional; details: MCF7, 48 h, read-out: GI
HOP-92 = assay: Growth inhibition of human HOP92 cells at 10 uM after 48 hrs by coulter counter analysis relative to control; assay type: functional; details: HOP-92, 48 h, read-out: GI
COLO 205 = assay: Growth inhibition of human COLO205 cells at 10 uM after 48 hrs by coulter counter analysis relative to control; assay type: functional; details: COLO 205, 48 h, read-out: GI
Aspergillus flavus = assay: Antifungal activity against Aspergillus flavus 3372 at 5 mg/mL after 48 hrs; assay type: functional; details: Aspergillus flavus, 3372, 48 h; read-out: DIZ
Bacillus cereus = assay: Antibacterial activity against Bacillus cereus at 5 mg/mL after 24 hrs; assay type: functional; details: read-out: DIZ
OVCAR-4 = assay: Growth inhibition of human OVCAR4 cells at 10 uM after 48 hrs by coulter counter analysis relative to control; assay type: functional; details: OVCAR-4, 48 h, read-out: GI
M14 = assay: Growth inhibition of human M14 cells at 10 uM after 48 hrs by coulter counter analysis relative to control; assay type: functional; details: M14, 48 h, read-out: GI
K562 = assay: Growth inhibition of human K562 cells at 10 uM after 48 hrs by coulter counter analysis relative to control; assay type: functional; details: K562, 48 h, read-out: GI
SF-268 = assay: Growth inhibition of human SF268 cells at 10 uM after 48 hrs by coulter counter analysis relative to control; assay type: functional; details: SF-268, 48 h, read-out: GI
MOLT-4 = assay: Growth inhibition of human MOLT4 cells at 10 uM after 48 hrs by coulter counter analysis relative to control; assay type: functional; details: MOLT-4, 48 h, read-out: GI

N#Cc1cnc2sc(S(N)(=O)=O)nn2c1=O
10.7%: inhibition of growth at 10 µM (LOX IMVI)
< 10%: inhibition of growth at 10 µM (A549) | inhibition of growth at 10 µM (OVCAR-5) | inhibition of growth at 10 µM (CCRF-CEM) | inhibition of growth at 10 µM (SK-MEL-28) | inhibition of growth at 10 µM (SF-539) | inhibition of growth at 10 µM (IGROV-1) | inhibition of growth at 10 µM (SK-MEL-2) | inhibition of growth at 10 µM (SF-295) | inhibition of growth at 10 µM (NCI-H23) | inhibition of growth at 10 µM (SN12C) | inhibition of growth at 10 µM (NCI-H460) | inhibition of growth at 10 µM (HCT-116) | inhibition of growth at 10 µM (DU-145) | inhibition of growth at 10 µM (HOP-62) | inhibition of growth at 10 µM (PC-3) | inhibition of growth at 10 µM (TK-10) | inhibition of growth at 10 µM (NCI-H522) | inhibition of growth at 10 µM (UACC-62) | inhibition of growth at 10 µM (BT-549) | inhibition of growth at 10 µM (HCT-15) | inhibition of growth at 10 µM (MCF7) | inhibition of growth at 10 µM (COLO 205) | inhibition of growth at 10 µM (OVCAR-4) | inhibition of growth at 10 µM (M14) | inhibition of growth at 10 µM (K562) | inhibition of growth at 10 µM (SF-268) | inhibition of growth at 10 µM (MOLT-4)
18 mm: zone of inhibition at 5000 µg/mL (Staphylococcus aureus)
70%: mortality at 24 h, 100 ug/mL [1]
12.8%: inhibition of growth at 10 µM (Hs-578T)
83.3%: mortality at 24 h, 500 ug/mL [2]
< 2 mm: zone of inhibition at 5000 µg/mL (Aspergillus fumigatus) | zone of inhibition at 5000 µg/mL (Aspergillus flavus)
10.3%: inhibition of growth at 10 µM (SNB-75)
34.2%: inhibition of growth at 10 µM (A498)
12.3%: inhibition of growth at 10 µM (HOP-92)
2 mm: zone of inhibition at 5000 µg/mL (Bacillus cereus)
